# Biological target: Nanoluciferase-BRD9 fusion protein (Homo sapiens (Human), UniProt Q9H8M2)
# Test: SYO1 BRD9 NanoLuc degradation assay
# Type: cell-based
# Conditions: Table 5A; SYO-1 cells expressing 3×FLAG-NLuc-BRD9, 6 hours; read-out: SYO1 BRD9-NanoLuc degradation IC50
# Experimental: Procedure: A stable SYO-1 cell line expressing 3×FLAG-NLuc-BRD9 was generated. On day 0 cells were seeded in 30 μL media into each well of 384-well cell culture plates. The seeding density was 8000 cells/well. […] Subsequently plates were incubated for 6 hours in a standard tissue culture incubator and equilibrated at room temperature for 15 minutes. Nanoluciferase activity was measured by adding 15 μL of freshly prepared Nano-Glo Luciferase Assay Reagent (Promega N1130), shaking the plates for 10 minutes and reading the bioluminescence using an EnVision reader.
# DMSO treated cells are employed as High Control (HC) and 1 μM of a known BRD9 degrader standard treated cells are employed as Low Control (LC).
# Chain of Nanoluciferase-BRD9 fusion protein (Q9H8M2 whole entry, the tested form may be a part): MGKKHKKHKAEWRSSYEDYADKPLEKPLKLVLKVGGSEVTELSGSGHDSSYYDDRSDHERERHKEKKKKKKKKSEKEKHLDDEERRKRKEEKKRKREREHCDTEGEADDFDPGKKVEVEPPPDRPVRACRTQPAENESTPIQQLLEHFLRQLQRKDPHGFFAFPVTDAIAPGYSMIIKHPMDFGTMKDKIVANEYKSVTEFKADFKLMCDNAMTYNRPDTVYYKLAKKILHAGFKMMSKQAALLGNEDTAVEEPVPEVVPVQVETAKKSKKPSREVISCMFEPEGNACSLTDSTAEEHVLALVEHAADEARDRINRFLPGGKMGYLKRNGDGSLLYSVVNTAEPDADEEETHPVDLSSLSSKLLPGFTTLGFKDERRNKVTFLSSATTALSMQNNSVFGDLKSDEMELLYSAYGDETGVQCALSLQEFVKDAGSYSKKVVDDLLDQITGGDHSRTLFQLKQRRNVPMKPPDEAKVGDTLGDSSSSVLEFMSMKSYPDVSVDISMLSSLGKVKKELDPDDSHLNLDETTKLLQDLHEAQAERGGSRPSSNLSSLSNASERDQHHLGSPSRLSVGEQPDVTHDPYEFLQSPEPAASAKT
row,Structure (SMILES),DC50 [nM]
1,COc1cc(-c2cn(C)c(=O)c3cnccc23)cc(OC)c1CN1CC(CCNC(=O)CCOCCOc2cccc3c2C(=O)N(C2CCC(=O)NC2=O)C3=O)C1 (stereo not drawn) [Compound D83],100 to 1000
2,"COc1cc(-c2cn(C)c(=O)c3cnccc23)cc(OC)c1CN1CC(C(=O)N(C)Cc2cccc3c2C(=O)N(C2CCC(=O)NC2=O)C3=O)C1 (stereo not drawn) [Compound D29, 1-(2,6-dimethoxy-4-(2-methyl-1-oxo-1,2-dihydro-2,7-naphthyridin-4-yl)benzyl)-N-((2-(2,6-dioxopiperidin-3-yl)-1,3-dioxoisoindolin-4-yl)methyl)-N-methylazetidine-3-carboxamide]",10 to 100
3,"COc1cc(-c2cn(C)c(=O)c3cnccc23)cc(OC)c1CN1CCC2(CC1)CN(CCOc1ccc3c(c1)C(=O)N(C1CCC(=O)NC1=O)C3=O)CCO2 (stereo not drawn) [Compound D49, 5-[2-(9-[[2,6-dimethoxy-4-(2-methyl-1-oxo-2,7-naphthyridin-4-yl)phenyl]methyl]-1-oxa-4,9-diazaspiro[5.5]undecan-4-yl)ethoxy]-2-(2,6-dioxopiperidin-3-yl)isoindole-1,3-dione]",> 1000
4,COc1cc(-c2cn(C)c(=O)c3cnccc23)cc(OC)c1CN1CC2(C1)CN(C(=O)C#Cc1ccc3c(c1)C(=O)N(C1CCC(=O)NC1=O)C3=O)C2 (stereo not drawn) [Compound D81],< 10

# Same assay, conditions: Table 5B; SYO-1 cells expressing 3×FLAG-NLuc-BRD9, 6 hours; read-out: SYO1 BRD9-NanoLuc degradation IC50
row,Structure (SMILES),DC50 [nM]
1,COc1cc(-c2cc(C)c(=O)n(C)c2C)cc(OC)c1CN1CC(CN2CCC3(CC2)CN(c2ccc4c(c2)C(=O)N(C2CCC(=O)NC2=O)C4=O)C3)C1 (stereo not drawn) [Compound D346],< 10
2,COc1cc(-c2cn(C)c(=O)c3cnccc23)cc(OC)c1CN(C)CC(=O)NCCCCOc1ccc(-c2ccc3c(c2)C(=O)C(C2CCC(=O)NC2=O)C3=O)cc1 (stereo not drawn) [DD7],< 10
3,COc1cc(-c2cn(C)c(=O)c3cnccc23)cc(OC)c1CN1CC2(CN(CC#Cc3ccc4c(c3)C(=O)N(C3CCC(=O)NC3=O)C4=O)C2)C1 (stereo not drawn) [Compound D309],10 to 100
4,COc1cc(-c2cc(C(F)F)c(=O)n(C)c2)cc(OC)c1CN1CCC2(CC1)CN(c1ccc3c(c1)C(=O)N(C1CCC(=O)NC1=O)C3=O)C2 (stereo not drawn) [Compound D341],< 10
5,COc1cc(-c2cn(C)c(=O)c3cnccc23)cc(OC)c1CN(C)CCN(C)CCNC(=O)COc1ccc2c(c1)C(=O)N(C1CCC(=O)NC1=O)C2=O (stereo not drawn) [DD2],100 to 1000
6,COc1cc(-c2cn(C)c(=O)c3cnccc23)cc(OC)c1CN(C)CCn1cc(COC2CCN(c3ccc4c(c3)C(=O)N(C3CCC(=O)NC3=O)C4=O)CC2)nn1 (stereo not drawn) [Compound D278],10 to 100
7,COc1cc(-c2cn(C)c(=O)c3cnccc23)cc(OC)c1CN1CCC2(C1)CN(C(=O)CC#Cc1ccc3c(c1)C(=O)N(C1CCC(=O)NC1=O)C3=O)C2 (stereo not drawn) [Compound D314],10 to 100
8,COc1cc(-c2cn(C)c(=O)c3cnccc23)cc(OC)c1CN(C)CCOCCn1cc(COc2ccc3c(c2)C(=O)N(C2CCC(=O)NC2=O)C3=O)nn1 (stereo not drawn) [Compound D288],< 10
9,COc1cc(-c2cc(C)c(F)c3ccccc23)cc(OC)c1CN1CCC(CN2CCC3(CC2)CC(Oc2ccc4c(c2)C(=O)N(C2CCC(=O)NC2=O)C4=O)C3)CC1 (stereo not drawn) [DD10],100 to 1000
10,COc1cc(-c2cn(C)c(=O)c3cnccc23)cc(OC)c1CN1CCC2(CC1)CN(C(=O)C#Cc1ccc3c(c1)C(=O)N(C1CCC(=O)NC1=O)C3=O)C2 (stereo not drawn) [Compound D197],< 10
11,COc1cc(-c2cn(C)c(=O)c3cnccc23)cc(OC)c1CN1CC(CC(=O)NC2CC3(C2)CC(Oc2ccc4c(c2)C(=O)N(C2CCC(=O)NC2=O)C4=O)C3)C1 (stereo not drawn) [Compound D182],10 to 100
12,COc1cc(-c2cn(C)c(=O)c3cnccc23)cc(OC)c1CN1CC(n2cc(COc3ccc4c(c3)C(=O)N(C3CCC(=O)NC3=O)C4=O)nn2)C1 (stereo not drawn) [Compound D297],< 10
13,COc1cc(-c2cc(C)c(=O)n(C)c2)cc(OC)c1CN1CCC2(CC1)CC(Oc1ccc3c(c1)C(=O)N(C1CCC(=O)NC1=O)C3=O)C2 (stereo not drawn) [Compound D332],< 10
14,COc1cc(-c2cn(C)c(=O)c3cnccc23)cc(OC)c1Cn1cc(COC2CCN(c3ccc4c(c3)C(=O)N(C3CCC(=O)NC3=O)C4=O)CC2)nn1 (stereo not drawn) [Compound D272],< 10
15,COc1cc(-c2cn(C)c(=O)c3cnccc23)cc(OC)c1CN1CC(CC(=O)NC2CCC23CN(c2ccc4c(c2)C(=O)N(C2CCC(=O)NC2=O)C4=O)C3)C1 (stereo not drawn) [Compound D209],100 to 1000
16,COc1cc(-c2cn(C)c(=O)c3cnccc23)cc(OC)c1Cn1cc(COCCOc2ccc3c(c2)C(=O)N(C2CCC(=O)NC2=O)C3=O)nn1 (stereo not drawn) [Compound D303],10 to 100
17,COc1cc(-c2cn(C)c(=O)c3cnccc23)cc(OC)c1CN1CC2(CCN(C(=O)C#Cc3ccc4c(c3)C(=O)N(C3CCC(=O)NC3=O)C4=O)CC2)C1 (stereo not drawn) [Compound D198],< 10
18,COc1cc(-c2cn(C)c(=O)c3cnccc23)cc(OC)c1CN(C)CCCCCCCCNc1cccc2nc(C)n(C3CCC(=O)NC3=O)c(=O)c12 (stereo not drawn) [DD5],10 to 100
19,COc1cc(-c2cn(C)c(=O)c3cnccc23)cc(OC)c1CN1CCC(n2cc(COC3CN(c4ccc5c(c4)C(=O)N(C4CCC(=O)NC4=O)C5=O)C3)nn2)CC1 (stereo not drawn) [Compound D291],< 10

# Same assay, conditions: Table 5C; SYO-1 cells expressing 3×FLAG-NLuc-BRD9, 6 hours; read-out: SYO1 BRD9-NanoLuc degradation IC50
row,Structure (SMILES),DC50 [nM]
1,COc1cc(-c2cn(C)c(=O)c3cnccc23)cc(OC)c1CN1CCC(c2cnn(C3CCC(=O)NC3=O)c2)CC1 (stereo not drawn) [Compound D393],10 to 100
2,COc1cc(-c2nc(N)nc3[nH]cnc23)cc(OC)c1CN1CCC2(CC1)CN(c1ccc3c(c1)C(=O)N(C1CCC(=O)NC1=O)C3)C2 (stereo not drawn) [DD15],10 to 100
3,C/C=C/Cn1cc(-c2ccc(CN3CCC4(CC3)CN(c3ccc5c(c3)C(=O)N(C3CCC(=O)NC3=O)C5)C4)c(Cl)c2)n2cncc2c1=O (stereo not drawn) [Compound D465],< 10
4,COc1cc(-c2c(C)n(C)c(=O)c3[nH]cc(C)c23)cc(OC)c1CN1CCC2(CC1)CN(c1ccc3c(c1)C(=O)N(C1CCC(=O)NC1=O)C3=O)C2 (stereo not drawn) [Compound D445],> 1000
5,COc1cc(-c2cn(C)c(=O)c3cnccc23)cc(OC)c1CN1CCC2(CC1)CN(c1cccc(C(=O)NC3CCC(=O)NC3=O)c1)C2 (stereo not drawn) [Compound D392],10 to 100
6,COc1cc(-c2cc(C)c(=O)n(C)c2)cc(OC)c1CN1CC(CCc2ccc3c(c2)C(=O)N(C2CCC(=O)NC2=O)C3)C1 (stereo not drawn) [Compound D448],< 10
7,COc1cc(-c2cn(C)c(=O)c3cnccc23)cc(OC)c1CN1CC(Oc2ccc3c(c2)CN(C2CCC(=O)NC2=O)C3=O)C1 (stereo not drawn) [Compound D375],< 10
8,COc1cc(-c2c(C)n(C)c(=O)c3[nH]c(C)cc23)cc(OC)c1CN1CCC2(CC1)CN(c1ccc3c(c1)C(=O)N(C1CCC(=O)NC1=O)C3)C2 (stereo not drawn) [Compound D437],> 1000
9,COc1cc(-c2cn(C)c(=O)c3cnccc23)cc(OC)c1CN1CCC2(CC1)CN(c1ccnc(C(=O)NC3CCC(=O)NC3=O)c1)C2 (stereo not drawn) [Compound D471],< 10
10,COc1cc(-c2cn(C)c(=O)c3cnccc23)cc(OC)c1CN1CCC2(CC1)CN(c1ccc3c(c1)C(=O)N(C1CCCNC1=O)C3)C2 (stereo not drawn) [Compound D389],> 1000
11,COc1cc(CN2CCC3(CC2)CN(c2ccc4c(c2)C(=O)N(C2CCC(=O)NC2=O)C4)C3)cc(-c2cn(C)c(=O)c3cnccc23)c1 (stereo not drawn) [Compound D387],< 10
12,COc1cc(-c2cc(C)c(=O)n(C)c2)cc(OC)c1CN1CC(Cc2ccc3c(c2)C(=O)N(C2CCC(=O)NC2=O)C3)C1 (stereo not drawn) [Compound D449],10 to 100
13,COc1cc(-c2cc(C)c(=O)n(C)c2C)cc(OC)c1CN1CCN(c2ccc3c(c2)CN(C2CCC(=O)NC2=O)C3=O)CC1 (stereo not drawn) [Compound D423],< 10

# From patent US11414416B1, “Compounds and uses thereof” (Foghorn Therapeutics Inc., priority 2019, dated 2022)
